# Experimental data reported in patent US7364759B2, “Skin whitening compositions containing black cohosh extract” (Access Business Group International LLC, priority 2003, dated 2008).
# Test system: mouse derived immortalized melanocyte cells (M3)
# Assay: Suppression of melanogenesis in vitro (modified Dooley assay)
# Type: cell-based
# Conditions: treatment dose 0.100%; treated days 1, 3, 5; melanin extracted day 6, OD 405 nm
smiles,measurement,value
O=C1O[C@H]([C@@H](O)CO)C(O)=C1O [Ascorbic Acid],% Control Melanin,51%
